# Assay results as given in patent US11834432B2, “Substituted amino six-membered nitric heterocyclic ring compound and preparation and use thereof” (SHANGHAI INSTITUTE OF MATERIA MEDICA, CHINESE ACADEMY OF …, priority 2016, dated 2023).
# Where “and” joins values, the source holds several entries; their conditions need not be identical. Equal entries are not always repeated.
# Legend:
# Pharmacokinetics in rats = format: in vivo; settings: male, rat, plasma, SD rats
# Description: Seven SD rats, male, weighing 200-220 g, were randomly divided into two groups, 4 or 3 in each group. Compound S10 was administrated by intragastric or intravenous administration.
# Rats were fasted for 12 h before test, and had access to water ad libitum. The rats were uniformly fed 2 h after administration of.
# Blood sample time point and sample preparation:
# intragastric administration: 0.25, 0.5, 1.0, 2.0, 4.0, 6.0, 8.0 and 24 h after administration;
# intravenous administration: 5 min, 0.25, 0.5, 1.0, 2.0, 4.0, 6.0, 8.0 and 24 h after administration;
# 0.3 mL of venous blood was collected at the above time points via the rat eye vein venous plexus, placed in a heparinized test tube, and centrifuged at 11000 rpm for 5 min, and plasma was separated and frozen in a −20° C. refrigerator.
# S10 in rat plasma was determined by LC/MS/MS.
# The pharmacokinetic parameters after administration were calculated by a non-compartmental model of WinNonlin 6.3 software (Pharsight, USA).
# The peak concentration Cmax and the peak time Tmax are measured values; The area under the curve of the drug-time AUC0-t value: calculated by the trapezoidal method; AUC0-∞=AUC0-t+Ct/ke, Ct is the blood concentration of drug at the last measurable time point;
# ke is the elimination rate constant;
# Elimination half-life t1/2=0.693/ke;
# Clearance rate CL=D/AUC0-∞;
# Volume of steady state distribution Vss=CL×MRT;
# [1] = tested on: human lung cancer NCI-H1581 subcutaneously transplanted tumor; test: Growth of subcutaneously transplanted tumor in human lung cancer NCI-H1581 nude mice
# Description: The cell strain was inoculated in the right axilla of the nude mice, and the amount of cells inoculated was 5×10^6/mouse to form transplanted tumor, which was directly inoculated and used.
# The tumor tissue in the prosperous growth period was cut into 1.5 mm^3, and inoculated subcutaneously in the right axilla of the nude mice under aseptic conditions. The diameter of the transplanted tumor in the nude mice was measured with a vernier caliper, and the animals were randomly grouped when the average volume of tumors was about 150-160 mm^3. […] The solvent control group was given an equal amount of water for injection. The diameter of the transplanted tumor was measured twice a week during the entire experiment, and the body weight of the mice was also weighed. The calculation formula of tumor volume (TV) is: TV=1/2×a×b^2, where a and b respectively represent the length and width of the tumor. The relative tumor volume (RTV) was calculated based on the measured results and the formula was: RTV=Vt/V0, where V0 is the tumor volume measured at grouping and dosing (d0), and Vt is the tumor volume at each measurement.
smiles,measurement,setting,value
CNC(=O)c1cccc2cc(Oc3ccnc(NC(=O)c4ccc(N5C[C@@H](C)N[C@@H](C)C5)cc4)c3)ccc12 [Compound S10],bioavailability,"Pharmacokinetics in rats; oral, intragastric 10 mg/kg vs intravenous 5 mg/kg",79.6%
same,AUC(0-t),"Pharmacokinetics in rats; po, intragastric 10 mg/kg",3430 ng·h/mL
same,Cmax,"Pharmacokinetics in rats; po, intragastric 10 mg/kg",399 ng/mL
same,Tmax,"Pharmacokinetics in rats; po, intragastric 10 mg/kg",4.5 h
same,half-life,"Pharmacokinetics in rats; po, intragastric 10 mg/kg",3.55 h
same,clearance,Pharmacokinetics in rats; intravenous 5 mg/kg,40.8 mL/min/kg
same,half-life,Pharmacokinetics in rats; intravenous 5 mg/kg,3.69 h
same,Vd,"Pharmacokinetics in rats; intravenous 5 mg/kg, read-out: Vss",11.3 L/kg
same,Body weight (g) d0,"[1]; 2.5 mg/kg po qd/14, d0",19.8 g
same,"TV (mm^3, mean SD) d0","[1]; 2.5 mg/kg po qd/14, d0",157 ± 43 mm^3
same,Body weight (g) d14,"[1]; 2.5 mg/kg po qd/14, d14",21.8 g
same,RTV (mean SD),"[1]; 2.5 mg/kg po qd/14, d14",8.36 ± 2.17
same,T/C (%),"[1]; 2.5 mg/kg po qd/14, d14",40.19% and 40%
same,"TV (mm^3, mean SD) d14","[1]; 2.5 mg/kg po qd/14, d14",1287 ± 412 mm^3
same,Body weight (g) d0,"[1]; 5 mg/kg po qd/14, d0",19.0 g
same,"TV (mm^3, mean SD) d0","[1]; 5 mg/kg po qd/14, d0",154 ± 53 mm^3
same,Body weight (g) d14,"[1]; 5 mg/kg po qd/14, d14",21.5 g
same,RTV (mean SD),"[1]; 5 mg/kg po qd/14, d14",3.57 ± 0.91
same,T/C (%),"[1]; 5 mg/kg po qd/14, d14",17.18% and 17%
same,"TV (mm^3, mean SD) d14","[1]; 5 mg/kg po qd/14, d14",524 ± 122 mm^3
same,Body weight (g) d0,"[1]; 10 mg/kg po qd/14, d0",19.9 g
same,"TV (mm^3, mean SD) d0","[1]; 10 mg/kg po qd/14, d0",155 ± 45 mm^3
same,Body weight (g) d14,"[1]; 10 mg/kg po qd/14, d14",23.0 g
same,RTV (mean SD),"[1]; 10 mg/kg po qd/14, d14",2.09 ± 0.77
same,T/C (%),"[1]; 10 mg/kg po qd/14, d14",10.03% and 10%
same,"TV (mm^3, mean SD) d14","[1]; 10 mg/kg po qd/14, d14",338 ± 223 mm^3
same,Condition and mortality of animals during the experiment,"[1]; 10, 5 and 2.5 mg/kg po once a day for two weeks",the animals in each group were in good condition and there was no mice died
